Measurements reported in publication PMC2854261 (Analytical biochemistry, 2010).

Biological target: human DNA (cytosine-5)-methyltransferase I (DNMT1), Δ501DNMT1 (Homo sapiens, UniProt P26358)
Format: biochemical

human DNA (cytosine-5)-methyltransferase I (DNMT1), Δ501DNMT1, sequence (P26358 502-1616, stated change not applied): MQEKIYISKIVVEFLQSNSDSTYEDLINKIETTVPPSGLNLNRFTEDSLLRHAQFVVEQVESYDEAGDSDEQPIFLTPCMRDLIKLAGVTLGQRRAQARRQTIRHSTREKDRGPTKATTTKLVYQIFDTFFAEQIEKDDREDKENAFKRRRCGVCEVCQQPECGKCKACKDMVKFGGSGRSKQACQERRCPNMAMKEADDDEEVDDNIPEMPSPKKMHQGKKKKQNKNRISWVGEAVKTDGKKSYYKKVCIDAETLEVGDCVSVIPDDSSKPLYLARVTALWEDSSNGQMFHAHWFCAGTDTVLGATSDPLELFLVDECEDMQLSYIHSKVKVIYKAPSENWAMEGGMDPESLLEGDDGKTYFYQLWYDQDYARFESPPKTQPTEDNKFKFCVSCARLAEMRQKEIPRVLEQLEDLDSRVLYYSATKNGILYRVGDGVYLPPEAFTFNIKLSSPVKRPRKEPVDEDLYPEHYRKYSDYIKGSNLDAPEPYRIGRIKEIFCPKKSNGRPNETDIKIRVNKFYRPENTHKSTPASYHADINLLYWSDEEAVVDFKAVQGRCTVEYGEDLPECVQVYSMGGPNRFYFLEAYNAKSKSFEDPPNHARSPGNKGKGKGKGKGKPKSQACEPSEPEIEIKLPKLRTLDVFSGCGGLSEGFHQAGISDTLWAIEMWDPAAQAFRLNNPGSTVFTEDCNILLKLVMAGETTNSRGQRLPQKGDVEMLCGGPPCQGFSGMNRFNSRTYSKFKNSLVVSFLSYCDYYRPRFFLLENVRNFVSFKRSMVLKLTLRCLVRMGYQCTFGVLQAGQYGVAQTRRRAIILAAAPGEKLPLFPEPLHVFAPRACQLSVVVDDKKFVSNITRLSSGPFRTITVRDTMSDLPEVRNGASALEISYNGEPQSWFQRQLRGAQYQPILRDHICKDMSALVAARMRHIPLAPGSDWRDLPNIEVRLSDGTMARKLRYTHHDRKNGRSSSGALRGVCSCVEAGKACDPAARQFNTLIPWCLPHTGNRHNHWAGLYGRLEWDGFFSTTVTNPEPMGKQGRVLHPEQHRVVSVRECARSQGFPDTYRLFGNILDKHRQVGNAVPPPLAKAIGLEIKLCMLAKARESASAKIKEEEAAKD

Q: Which IC50 does the source give for Nc1ncnc2c1ncn2[C@@H]1O[C@H](CO)[C@@H](O)[C@H]1O [adenosine] here?
A: 3 mM
